Common to all, as to experiment: NCI-60 cell line screen, 48 h
In test [1] the test system is UACC-257 melanoma.
For test [2], the system named is RPMI-8226 leukemia.
In test [3] the test system is 786-0 renal.
The subject of test [4] is SW-620 colon.
In test [5] the test system is HT29 colon.
The subject of test [6] is SF-268 CNS.
Test [7] concerns NCI-H522 lung.
Test [8] deals with NCI-H23 lung.
In test [9] the test system is HCT-15 colon.
For test [10], the system named is EKVX NSCLC.
Test [11] concerns SK-MEL-5 melanoma.
Test [12] concerns RXF 393 renal.
Test [13] relates to OVCAR-8 ovarian.
Test [14] concerns MDA-MB-435.
For test [15], the system named is MCF7 breast.
Test [16] relates to SNB-19 CNS.
Test [17] relates to COLO 205 colon.
Test [18] relates to SF-295 CNS.
Test [19] has as its system MOLT-4 leukemia.
For test [20], the system named is SK-MEL-2 melanoma.

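In this assay, cells in 96-well plates receive the compound at five concentrations for 48 hours. Endpoints are linearly interpolated between the surrounding concentrations. TGI is the concentration that stops growth completely.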

With `CN1CN(c2ccccc2)C2(CCN(Cc3csc4ccccc34)CC2)C1=O`, the TGI in test [1] was 31.9 µM; in test [2], 7.5 µM; in test [3] it was over 100 µM; in test [4], over 100 µM; in test [5], 36.5 µM; in test [6], over 100 µM. In addition, the TGI in [7] is 35.7 µM; in test [8] it was 80.4 µM; in test [9], over 100 µM; in test [10], 41.8 µM; in [11], 22.4 µM; in test [12] it was 35.2 µM. For the same compound, the TGI in test [13] is 72.6 µM; in [14], 28.7 µM; in [15], 37.3 µM; in test [16], over 100 µM; in [17] it was 30.2 µM; in [18], 26.6 µM. This compound also returned a TGI in test [19] of 29.6 µM.

On to `O=C(NNC(=S)Nc1ccccc1)c1cc(-c2ccccc2)nc2ccccc12`, for which the TGI in test [1] is 60.1 µM; in test [2] it was 44.9 µM; in test [3], 30 µM; in test [4], 49.9 µM; in [5], over 100 µM; in test [6], 76.3 µM. Further, the TGI in test [7] came out at 52.6 µM; in test [8] it was 37.9 µM; in test [9], 33 µM; in [11], 27 µM; in test [12], 46.4 µM; in test [20], 31.9 µM. The TGI in test [13] is 57.6 µM; in test [14] it was 59.4 µM; in test [15], 60.8 µM; in test [16], over 100 µM; in [17], 36.8 µM; in [18] it was 27.4 µM. This compound also came in with a TGI in test [19] of 32.2 µM.

Take `Cc1ccc(C2=Nn3c(nc4sc(C)c(C)c4c3=O)SC2)cc1`: the TGI in test [1], in test [2], in [3], in [4], in test [5] and in test [6] was over 100 µM each time. For the same compound, the TGI in [7], in test [8], in test [9], in test [10], in test [11] and in [12] was over 100 µM each time. Also, the TGI in test [13], in test [14], in test [15], in test [17], in test [18] and in test [19] was over 100 µM throughout.

Take `N#CC(C#N)=C1c2ccccc2C(=NN)c2ccccc21`: the TGI in test [1], in test [2], in test [3], in [4], in test [5] and in [6] was over 100 µM throughout. In addition, the TGI in test [7], in [9], in [11], in test [12], in test [20] and in test [13] was over 100 µM throughout. In addition, the TGI in [14], in test [15], in test [16], in test [17], in [18] and in [19] was over 100 µM each time.

As to `CCOC(=O)c1nnsc1NC(=O)Nc1ccc(Cc2ccc(NC(=O)Nc3snnc3C(=O)OCC)cc2)cc1`, the TGI is over 100 µM in [1]; over 100 µM in test [2]; 33.9 µM in test [3]; over 100 µM in [4]; over 100 µM in test [5]; over 100 µM in test [6]. For the same compound, the TGI in test [8] was over 100 µM; in test [9] it was over 100 µM; in test [10], over 100 µM; in test [11] it was 93 µM; in [12] it was 70.5 µM; in [20], over 100 µM. The TGI in test [13] was 76.6 µM; in [14] it was over 100 µM; in [15], over 100 µM; in test [16], over 100 µM; in test [17], over 100 µM; in [18] it was over 100 µM. The same compound registered a TGI in test [19] of over 100 µM.

On to `CC(=O)C1(Cc2cccc3ccccc23)S(=O)(=O)OCCOS1(=O)=O`, for which the TGI in test [1] is 16.6 µM; in test [2], 47.2 µM; in [3] it was 44 µM; in [4], 39.2 µM; in test [5] it was 37.4 µM; in test [6], 50.2 µM. Moreover, the TGI in test [7] amounted to 47.7 µM; in [8] it was 60.4 µM; in [9], 41.6 µM; in test [10], 32.6 µM; in test [11] it was 24.6 µM; in test [12], 26.7 µM. Also, the TGI in test [13] was 55.3 µM; in [14], 27.8 µM; in test [15], 39.7 µM; in test [16], 49.2 µM; in test [17], 30.8 µM; in test [18], 20.5 µM. The TGI in [19] was over 100 µM.

For `CCN(C(=O)N[C@@H](Cc1ccccc1)C(=O)N[C@@H](CC(C)C)C(=O)OC)c1ccccc1`, the TGI worked out at 54.3 µM in test [1]; 56.9 µM in test [2]; 40.5 µM in test [3]; 75 µM in [4]; 27.3 µM in test [5]; 22.6 µM in test [7]. Moreover, the TGI is 53.8 µM in test [8]; 34.5 µM in test [9]; 58.8 µM in test [10]; 37.7 µM in test [12]; over 100 µM in test [20]; 36.7 µM in test [13]. Moreover, the TGI was over 100 µM in test [14]; 62 µM in test [15]; over 100 µM in test [16]; 32.2 µM in [17]; 84.3 µM in [18]; 44.2 µM in test [19].

For `S=c1nc(N2CCCCC2)c2cn[nH]c2[nH]1`, the TGI in test [1], in test [2], in [3], in test [4], in test [5] and in [6] was over 100 µM each time. For the same compound, the TGI is 41.4 µM in test [7]; over 100 µM in test [8]; over 100 µM in [9]; over 100 µM in test [10]; over 100 µM in test [11]; over 100 µM in test [12]. For the same compound, the TGI in test [20] is 74.8 µM; in [13], over 100 µM; in test [14], over 100 µM; in test [15], over 100 µM; in [16] it was over 100 µM; in test [17], over 100 µM. In test [18], this compound yielded a TGI of over 100 µM.

For the compound `CCCc1cc(=O)oc2c3c(c4c(c12)OC(C)(C)CC4)O[C@@H](C)[C@H](C)[C@H]3O`, the TGI in test [1] is 17.7 µM; in test [2], 8.74 µM; in test [3], 18.1 µM; in test [4], 36.8 µM; in [5] it was 20.7 µM; in [6] it was 30.3 µM. In addition, the TGI in test [8] came out at 25 µM; in test [9] it was 25.2 µM; in test [10], 29.4 µM; in test [11] it was 20.3 µM; in [12], 27.1 µM; in test [20], 29.9 µM. Further, the TGI in test [13] was 29.9 µM; in [14], 22.1 µM; in [15], 47.3 µM; in test [16] it was 30.9 µM; in test [17] it was 28.6 µM; in test [18], 28.5 µM. The same compound had a TGI in [19] of 13.7 µM.

Take `COc1cc(C=O)cc(/C=N/n2c3ccccc3c3ccccc32)c1O`: the TGI in test [1] was over 100 µM; in [2], 46.2 µM; in test [3], over 100 µM; in test [4], over 100 µM; in test [5], over 100 µM; in [6], over 100 µM. Moreover, the TGI in test [7] was 73.2 µM; in test [8] it was over 100 µM; in test [9], over 100 µM; in test [10], over 100 µM; in [12], 99.7 µM; in test [13], over 100 µM. Moreover, the TGI in [14] is 47.5 µM; in [15], 42.6 µM; in test [16] it was over 100 µM; in test [17] it was 52.1 µM; in test [18], 18.6 µM; in test [19] it was 76.8 µM.

Consider `NC(=O)Nc1ccc(S(=O)(=O)Nc2ccc(S(N)(=O)=O)cc2)cc1`, for which the TGI in test [1] was over 100 µM; in test [2], over 100 µM; in [3], over 100 µM; in test [4] it was over 100 µM; in test [5] it was over 100 µM; in test [6], 2.59 µM. The TGI in test [7], in [8], in test [9], in test [10], in test [11] and in test [12] was over 100 µM throughout. Further, the TGI in test [20], in test [13], in test [14], in test [15], in test [16] and in test [17] was over 100 µM throughout. The same compound gave a TGI in test [18] of over 100 µM.

For `CCc1cc2c(c3c1CCC3=O)CC1(Cc3ccc(C)cc3C1)C2` (centres undefined), the TGI in test [1] is over 100 µM; in test [2], 94.8 µM; in test [3], over 100 µM; in [5], 46.9 µM; in [7], over 100 µM; in test [8], over 100 µM. For the same compound, the TGI in [9] is over 100 µM; in [10], over 100 µM; in [11] it was 76.8 µM; in test [12], over 100 µM; in test [20], 67.6 µM; in [13], over 100 µM. Moreover, the TGI in test [14] was over 100 µM; in [15], over 100 µM; in test [17], over 100 µM; in test [18], over 100 µM; in test [19], 68.7 µM.

As for `C/C(=C(/C)c1ccc(O)cc1)c1ccc(O)cc1`, the TGI in test [1] is over 100 µM; in test [2] it was 71.6 µM; in test [3] it was over 100 µM; in [4] it was over 100 µM; in test [5], over 100 µM; in [6], over 100 µM. Further, the TGI is over 100 µM in test [7]; over 100 µM in [8]; over 100 µM in test [9]; 88.2 µM in test [10]; 50 µM in [11]; over 100 µM in [12]. The TGI in test [20], in [13], in test [14], in test [15], in test [16] and in [17] was over 100 µM throughout. Besides, the TGI in [19] was over 100 µM.

Regarding `O=C1N=C(SC(SC2=NC(=O)C3(NN2)c2ccccc2-c2ccccc23)=C(SC2=NC(=O)C3(NN2)c2ccccc2-c2ccccc23)SC2=NC(=O)C3(NN2)c2ccccc2-c2ccccc23)NNC12c1ccccc1-c1ccccc12`, the TGI in test [1], in test [2], in test [3], in test [4], in test [5] and in test [6] was over 10 µM throughout. Moreover, the TGI in test [7], in test [8], in test [9], in [10], in [11] and in test [12] was over 10 µM in each case. Besides, the TGI in [13], in test [14], in [15], in [16], in [17] and in test [18] was over 10 µM in each case. The TGI in test [19] worked out at 2.95 µM.

Regarding `O=C1/C(=c2\s/c(=C\c3ccccc3)c(=O)n2-c2ccccc2)SC(=S)N1c1ccccc1`, the TGI in [1], in test [2], in test [3], in [4], in test [5] and in test [6] was over 100 µM each time. In addition, the TGI in [8], in test [9], in [10], in test [11], in test [12] and in test [20] was over 100 µM in each case. Moreover, the TGI in test [13], in test [14], in test [15], in [16], in [17] and in [18] was over 100 µM in each case. Moreover, the TGI in test [19] was over 100 µM.

For the origin of these results see PubChem BioAssay (NCI).
